Measured values taken from patent US7354588B1, “Functional derivatives of ICAM-1 with altered ability to bind LFA-1 or HRV” (Dana Farber Cancer Institute, priority 1987, dated 2008).

Assays:
[1] = system: human peripheral blood mononuclear cells (responder and irradiated stimulator cells); experiment: Mixed lymphocyte reaction (MLR), ^3HT incorporation; format: cell-based; details: Table 19, R × S, R6-5-D6 8 ng/ml, Dex 50 ng/ml
[2] = system: JY cells (LFA-1 dependent aggregation); experiment: Qualitative aggregation assay (microtiter plate), PMA-induced JY cell aggregation; format: cell-based, human
Experimental: In order to assess the extent of cellular adhesion, aggregation assays were employed. Cell lines used in such assays were washed two times with RPMI 1640 medium containing 5 mM Hepes buffer (Sigma Chemical Co., St. Louis) and resuspended to a concentration of 2×10^6 cells/ml. Added to flat-bottomed, 96-well microtiter plates (No. 3596; Costar, Cambridge, Mass.) were 50 μl of appropriate monoclonal antibody supernatant or 50 μl of complete medium with or without purified monoclonal antibodies, 50 μl of complete medium containing 200 ng/ml of the phorbol ester phorbol myristate acetate (PMA) and 100 μl of cells at a concentration of 2×10^6 cells/ml in complete medium. This yielded a final concentration of 50 ng/ml PMA and 2×10^5 cells/well. Cells were allowed to settle spontaneously, and the degree of aggregation was scored at various time points. […] In order to obtain a more quantitative estimate of cellular adhesion, reagents and cells were added to 5 ml polystyrene tubes in the same order as above. Tubes were placed in a rack on a gyratory shaker at 37° C. After 1 hour at approximately 200 rpm, 10 μl of the cell suspension was placed in a hemocytometer and the number of free cells was quantitated. Percent aggregation was determined by the following equation: […]
The qualitative aggregation assay described in Example 2 was performed using the Epstein-Barr transformed cell line JY. […]

[3] = target: ICAM-1-LFA-1 adhesion (Homo sapiens, UniProt P05107+P05362+P20701); details: peptides; cited from earlier work
[4] = target: T1, LFA-1 (Homo sapiens, UniProt P05107+P20701); experiment: Adherence of COS cells expressing ICAM-1 or ICAM-1 mutants to plastic-bound purified LFA-1; format: cell-based
T1 construct: endogenous in cells

[5] = system: HRV14; experiment: Binding of [^35S]-Met labeled HRV14 to COS cells expressing ICAM-1 mutants; format: cell-based, human rhinovirus 14
[6] = target: T2, LFA-1 on SKW-3 cells (Homo sapiens, UniProt P05107+P20701); experiment: SKW-3 cell binding to ICAM-1 bound to plastic (solid phase); format: cell-based; details: purified protein bound to 96-well plates
T2 construct: SKW-3 cells bearing LFA-1 on their surface; endogenous in cells; host or cells: SKW-3 T-lymphoma cells
Description: The truncated ICAM-1 secreted from transfected cells was purified by immunoaffinity chromatography with an ICAM-1 specific antibody (R6-5-D6) and tested for functional activity in a cell binding assay. […] These preparations of ICAM-1 were allowed to bind to the surfaces of plastic 96-well plates (Nunc), to produce ICAM-1 bound to a solid-phase. After washing out unbound material, approximately 75-80% and 83-88% of SKW-3 cells bearing LFA-1 on their surface bound specifically to the native and to the truncated forms of ICAM-1, respectively.

T1 sequence (P20701 26-1170): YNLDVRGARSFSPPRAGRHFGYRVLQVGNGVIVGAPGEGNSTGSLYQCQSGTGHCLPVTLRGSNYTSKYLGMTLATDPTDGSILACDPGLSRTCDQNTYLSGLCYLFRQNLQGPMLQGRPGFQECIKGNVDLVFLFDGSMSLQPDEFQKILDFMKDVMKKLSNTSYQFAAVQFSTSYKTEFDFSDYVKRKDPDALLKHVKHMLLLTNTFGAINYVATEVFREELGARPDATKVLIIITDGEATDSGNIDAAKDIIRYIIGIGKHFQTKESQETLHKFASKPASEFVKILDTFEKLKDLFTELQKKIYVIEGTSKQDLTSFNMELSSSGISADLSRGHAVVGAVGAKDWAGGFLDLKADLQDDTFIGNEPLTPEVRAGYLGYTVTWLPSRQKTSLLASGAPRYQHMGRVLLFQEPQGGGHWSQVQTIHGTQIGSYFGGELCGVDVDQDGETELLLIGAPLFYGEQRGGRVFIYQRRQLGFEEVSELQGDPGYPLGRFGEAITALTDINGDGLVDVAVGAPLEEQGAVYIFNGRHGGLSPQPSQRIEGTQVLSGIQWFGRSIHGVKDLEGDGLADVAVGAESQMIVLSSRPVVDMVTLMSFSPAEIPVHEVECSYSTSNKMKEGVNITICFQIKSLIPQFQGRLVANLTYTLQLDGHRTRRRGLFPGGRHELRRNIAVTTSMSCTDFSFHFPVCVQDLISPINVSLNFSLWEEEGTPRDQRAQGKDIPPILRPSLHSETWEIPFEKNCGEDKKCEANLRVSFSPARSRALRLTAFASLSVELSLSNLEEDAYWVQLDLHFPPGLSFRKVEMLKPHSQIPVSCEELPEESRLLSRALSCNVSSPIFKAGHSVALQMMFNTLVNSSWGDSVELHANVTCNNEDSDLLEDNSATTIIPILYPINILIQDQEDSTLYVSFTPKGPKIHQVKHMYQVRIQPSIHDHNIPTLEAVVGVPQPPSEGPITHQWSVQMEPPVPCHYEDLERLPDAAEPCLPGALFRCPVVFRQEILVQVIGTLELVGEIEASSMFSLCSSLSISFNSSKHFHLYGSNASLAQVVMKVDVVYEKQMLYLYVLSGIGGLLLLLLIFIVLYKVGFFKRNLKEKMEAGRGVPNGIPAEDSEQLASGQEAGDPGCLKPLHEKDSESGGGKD
T1 sequence (P05107 23-769): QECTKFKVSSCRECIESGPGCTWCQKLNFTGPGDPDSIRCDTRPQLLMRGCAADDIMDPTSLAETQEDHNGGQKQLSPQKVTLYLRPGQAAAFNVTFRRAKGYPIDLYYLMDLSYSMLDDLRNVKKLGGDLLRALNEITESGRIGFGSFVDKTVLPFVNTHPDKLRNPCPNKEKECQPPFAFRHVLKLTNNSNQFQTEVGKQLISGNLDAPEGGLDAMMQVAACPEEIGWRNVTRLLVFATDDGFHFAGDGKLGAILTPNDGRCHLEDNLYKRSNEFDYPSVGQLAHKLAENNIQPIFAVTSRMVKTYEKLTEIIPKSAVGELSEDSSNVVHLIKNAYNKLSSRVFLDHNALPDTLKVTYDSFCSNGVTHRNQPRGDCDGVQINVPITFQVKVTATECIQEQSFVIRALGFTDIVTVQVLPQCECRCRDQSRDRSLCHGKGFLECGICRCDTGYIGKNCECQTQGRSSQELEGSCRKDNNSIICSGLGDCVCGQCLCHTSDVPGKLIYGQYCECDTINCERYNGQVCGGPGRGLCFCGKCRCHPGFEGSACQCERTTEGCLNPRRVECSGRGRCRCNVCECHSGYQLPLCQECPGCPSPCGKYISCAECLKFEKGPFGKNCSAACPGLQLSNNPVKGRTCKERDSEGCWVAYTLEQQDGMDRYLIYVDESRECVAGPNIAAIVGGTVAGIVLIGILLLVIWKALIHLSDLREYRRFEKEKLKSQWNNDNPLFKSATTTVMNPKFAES
Sequence of ICAM-1-LFA-1 adhesion (P20701 26-1170, one chain of several): as the sequence (P20701 26-1170) above
Sequence of ICAM-1-LFA-1 adhesion (P05107 23-769, one chain of several): as the sequence (P05107 23-769) above
T2 sequence (P20701 26-1170): as the sequence (P20701 26-1170) above
T2 sequence (P05107 23-769): as the sequence (P05107 23-769) above

## C[C@@H]1C[C@H]2[C@@H]3CCC4=CC(=O)C=C[C@]4(C)[C@@]3(F)[C@@H](O)C[C@]2(C)[C@@]1(O)C(=O)CO [Dex, Dexamethasone]
[1]; Homo sapiens, PBMC
  inhibition at 0.05 µg/mL: 59%
[1]; no inhibitor 34,199
  ^3HT Incorporation (CPM): 14,158 CPM

## [Mg] [magnesium]
[2]; 1.25 mM calcium ions added to the medium
  lowest concentration supporting PMA-induced JY cell aggregation: 0.02 millimolar
[2]; medium free of calcium ions
  lowest concentration supporting PMA-induced JY cell aggregation: 0.3 mM

## GRGDSP
[3]
  inhibition of ICAM-1-LFA-1 adhesion: failure

## GRGESP
[3]
  inhibition of ICAM-1-LFA-1 adhesion: failure

B1: Native ICAM-1: native (wild-type) Intercellular Adhesion Molecule-1, purified or expressed in COS cells (protein, UniProt P05362 28-532, looked up)
Intercellular adhesion …: QTSVSPSKVILPRGGSVLVTCSTSCDQPKLLGIETPLPKKELLLPGNNRKVYELSNVQEDSQPMCYSNCPDGQSTAKTFLTVYWTPERVELAPLPSWQPVGKNLTLRCQVEGGAPRANLTVVLLRGEKELKREPAVGEPAEVTTTVLVRRDHHGANFSCRTELDLRPQGLELFENTSAPYQLQTFVLPATPPQLVSPRVLEVDTQGTVVCSLDGLFPVSEAQVHLALGDQRLNPTVTYGNDSFSAKASVSVTAEDEGTQRLTCAVILGNQSQETLQTVTIYSFPAPNVILTKPEVSEGTEVTVKCEAHPRAKVTLNGVPAQPLGPRAQLLLKATPEDNGRSFSCSATLEVAGQLIHKNQTRELRVLYGPRLDERDCPGNWTWPENSQQTPMCQAWGNPLPELKCLKDGTFPLPIGESVTVTRDLEGTYLCRARSTQGEVTRKVTVNVLSPRYEIVIITVVAAAVIMGTAGLSTYLYNRQRKIKKYRLQQAQKGTPMKPNTQATPP
[4]
  Percent of ICAM-1 expressing COS cells that bound to LFA-1, mean: 33%
[4]; mock-transfected 0-1%
  Percent of ICAM-1 expressing COS cells that bound to LFA-1, range over experiments: 11-63%
[4]; transfected Cos cells, purified LFA-1 on plastic
  % of Cells Expressing ICAM-1 that Bind LFA-1 in the Presence of RR1/1: 0%
[5]
  Percent of [^35S] methionine-labeled HRV-14 which bound to COS cells, mean: 21%
[5]; mock-transfected 0-4%
  Percent of [^35S] methionine-labeled HRV-14 which bound to COS cells, range over experiments: 6-43%
[6]
  SKW-3 cells bound specifically to plastic-bound ICAM-1: 75-80%
